Test results published in patent US4551547A, “Biocidal 2-aryl-1, 3-cyclopentanedione enol ester compounds” (Union Carbide Corporation, priority 1983, dated 1985).
Values after ≈ are worked out from the molar mass of the structure shown.

What was measured:
[1] = test system: Cotton; test: Post-emergent herbicidal test, cotton; format: in vivo; parameters: key: 1: no perceptible injury; 2: intermediate degrees of injury; 3: intermediate degrees of injury; 4: intermediate degrees of injury; 5: the plant was dead; conditions: 2500 parts per million, after ten days; for Post-emergent Herbicidal, Cotton: Table II; for Post Emergent Herbicidal, Cotton: Table III
Method: (§1) Suspensions of the test compounds were prepared by dissolving one gram of compound in 50 milliliters of acetone in which had been dissolved 0.1 gram (10 percent of the weight of compound) of an alkylphenoxyethanol sufactant, as an emulsifying or dispersing agent. The resulting solution was mixed into 160 milliliters of water to give roughly 200 milliliters of a suspension containing the compound in finely divided form. The thus prepared stock suspension contained 0.5 percent by weight of compound. The test concentrations employed in the tests described below were obtained by diluting the stock suspension with water. The test procedures were as follows:
(§2) Experiments were also conducted to determine the phytotoxicity of representative compositions with respect to healthy fresh plants. Solutions of the compounds were prepared as described above to provide a concentration of 2500 parts per million of the test compound. The test plants were sprayed in accordance with the procedure described above for the Mite Foliage Spray Test so as to deliver approximately 100 milliliters of test solutions to the leaves of each plant tested. The sprayed plants and controls were set aside for approximately one hour to allow the solutions to dry and were then placed in the greenhouse. After ten days the plants were visually inspected to determine the extent of foliage injury. A rating of 1 indicates no perceptible injury; 5 indicates the plant was dead and ratings of 2, 3 and 4 indicate intermediate degrees of injury based upon the number and extent to which leaves were injured.

[2] = test system: Soybean; test: Post-emergent herbicidal test, soybean; format: in vivo; parameters: key: 1: no perceptible injury; 2: intermediate degrees of injury; 3: intermediate degrees of injury; 4: intermediate degrees of injury; 5: the plant was dead; conditions: 2500 parts per million, after ten days; for Post-emergent Herbicidal, Soybean: Table II; for Post Emergent Herbicidal, Soybean: Table III
Method: as §1, §2

[3] = test system: Tomato; test: Post-emergent herbicidal test, tomato; format: in vivo; parameters: key: 1: no perceptible injury; 2: intermediate degrees of injury; 3: intermediate degrees of injury; 4: intermediate degrees of injury; 5: the plant was dead; conditions: 2500 parts per million, after ten days; for Post-emergent Herbicidal, Tomato: Table II; for Post Emergent Herbicidal, Tomato: Table III
Method: as §1, §2

[4] = test system: Mustard; test: Preliminary herbicide seed germination test (pre-emergent), mustard; format: in vivo, Brassica pincea var. foliosa (Florida broadleaf); parameters: key: 5: no seedling emerged; 4: few seedlings emerged and/or very severe stunting; 3: moderate reduction in stand and/or moderate stunting.; 2: very slight reduction in stand and/or slight stunting; 1: no injury, seedlings appear no different with respect to stand or growth than untreated controls; conditions: ten to twelve days after application
Method: as §1
(§3) The following seeds were used in this test:
Mustard--Brassica pincea var. foliosa (Florida broadleaf)
(§4) Two […] mixtures were prepared as follows:
(§5) Each of the above mixtures was rolled separately in 5 gallon containers for approximately one-half hour on ball mill to insure uniform mixing of seeds and soil. For each compound four 3-inch pots were filled with soil to within 11/2 inches of top of pots. To two of these pots were added 70 cc. of Mixture I. To the remaining 2 pots were added 70 cc. of Mixture II. The seed-soil mixture was tamped firmly, and the pots were removed to the greenhouse and watered lightly. About 2 hours after planting, 25 milliliters of the test formulation were added to one pot containing Mixture I and one pot containing Mixture II. An equal volume of a water solution containing acetone and an emulsifier in the same concentration as the herbicidal mixture but without the candidate herbicide was also added to each of the soil-seed mixtures. These pots are used as check or control units. The test compounds were formulated by diluting the stock suspension with water to obtain the desired concentration of the compound in parts per million of the final formulation. Each compound was tested at the same concentration. […] Ratings were made according to the following designations: […]

[5] = test system: Perennial rye grass; test: Preliminary herbicide seed germination test (pre-emergent), perennial rye grass; format: in vivo, Solium perenne; parameters: key: 5: no seedling emerged; 4: few seedlings emerged and/or very severe stunting; 3: moderate reduction in stand and/or moderate stunting.; 2: very slight reduction in stand and/or slight stunting; 1: no injury, seedlings appear no different with respect to stand or growth than untreated controls; conditions: ten to twelve days after application
Method: as §1, §3
Perennial rye grass--Solium perenne
as §4, §5

[6] = test system: Crabgrass; test: Preliminary herbicide seed germination test (pre-emergent), crabgrass; format: in vivo, Digitaria sanguinalis; parameters: key: 5: no seedling emerged; 4: few seedlings emerged and/or very severe stunting; 3: moderate reduction in stand and/or moderate stunting.; 2: very slight reduction in stand and/or slight stunting; 1: no injury, seedlings appear no different with respect to stand or growth than untreated controls; conditions: ten to twelve days after application
Method: as §1, §3
Crabgrass--Digitaria sanguinalis
as §4, §5

[7] = test system: Corn; test: Post-emergent herbicidal test, corn; format: in vivo; parameters: key: 1: no perceptible injury; 2: intermediate degrees of injury; 3: intermediate degrees of injury; 4: intermediate degrees of injury; 5: the plant was dead; conditions: 2500 parts per million, after ten days; for Post-emergent Herbicidal, Corn: Table II; for Post Emergent Herbicidal, Corn: Table III
Method: as §1, §2

[8] = test system: two-spotted mite (adults and nymphal stages); test: Mite Foliage Spray Test (adults and nymphs); format: in vivo, Tetranychus urticae (Koch); parameters: key to Miticidal, Adult: A: Excellent Control; B: Partial Control; No Control; conditions: for Miticidal, Adult: Table II, mortality count after four days; for LC50: Tetranychus urticae, foliar, Table III, ppm required for a 50 percent kill of mites, read-out: Miticidal LD50, Adult
Method: Suspensions of the test compounds were prepared by dissolving one gram of compound in 50 milliliters of acetone in which had been dissolved 0.1 gram (10 percent of the weight of compound) of an alkylphenoxyethanol sufactant, as an emulsifying or dispersing agent. The resulting solution was mixed into 160 milliliters of water to give roughly 200 milliliters of a suspension containing the compound in finely divided form. The thus prepared stock suspension contained 0.5 percent by weight of compound. The test concentrations employed in the tests described below were obtained by diluting the stock suspension with water. The test procedures were as follows: Adults and nymphal stages of the two-spotted mite (Tetranychus urticae (Koch)), reared on Tender-green beam plants at 80±5° F. and 50±5 percent relative humidity, were the tests organisms. Infested leaves from a stock culture were placed of the primary leaves of two bean plants six to eight inches in height, growing in a two-and-a-half inch clay pot. 150-200 Mites, a sufficient number for testing, transferred from the excised leaves to the fresh plants in a period of twenty-four hours. Following the twenty-four hour transfer period, the excised leaves were removed from the infested plants. The test compounds were formulated by diluting the stock suspension with water to provide suspensions containing the desired amount of test compound per million parts of final formulation. The potted plants (one pot per compound) were placed on a revolving turntable and sprayed with 100-110 milliliters of tests compound formulation by use of a DeVilbis spray gun set at 40 psi, air pressure. This application, which lasted 30 seconds, was sufficient to wet the plants to run-off. As a control, 100-110 milliliters of a water solution containing acetone and emulsifier in the same concentrations as the test compound formulation, but containing no test compound, were also sprayed on infested plants. The sprayed plants were held at 80±5° F. and 50±5 percent relative humidity for four days, after which, a mortality count of motile forms was made on the leaves of the test plants. Any individual which was capable of locomotion upon prodding was considered living. In these tests the pesticidal activity of the compounds against mites and mite eggs was rated as follows: Tests were conducted in accordance with the procedures given at pages 17 to 21 supra. The results are expressed in the same manner as used in Table II, except with respect to miticidal activity. For mite adult and mite egg comparison purposes, results are given in parts per million (ppm) required for a 50 percent kill of mites or eggs, respectively.

Compound | Post-emergent Herbicidal, Cotton [1] | Post-emergent Herbicidal, Soybean [2] | Post-emergent Herbicidal, Tomato [3] | Pre-emergent Herbicidal, Mustard ([4]; Table II) | Pre-emergent Herbicidal, Rye ([5]; Table II) | Pre-emergent Herbicidal, Crabgrass ([6]; Table II) | Post-emergent Herbicidal, Corn [7] | Miticidal, Adult [8] | Post Emergent Herbicidal, Cotton [1] | Post Emergent Herbicidal, Soybean [2] | Post Emergent Herbicidal, Tomato [3] | Pre-emergent Herbicidal, Mustard ([4]; Table III) | Pre-emergent Herbicidal, Rye ([5]; Table III) | Pre-emergent Herbicidal, Crabgrass ([6]; Table III) | Post Emergent Herbicidal, Corn [7] | LC50 [8] [µg/mL]
Cc1ccc(C2=C(OC(=O)c3ccccc3)C3CCCCC3C2=O)c(C)c1 (stereo not drawn) [Compound 27, 3-benzoyloxy-2-(2',4'-dimethylphenyl)-4,5,6,7,8,9-hexahydro-2-indenone] | 2 | 2 | 2 | 5 | 5 | 5 | 4 | A | – | – | – | – | – | – | – | –
CCCCC(CC)C(=O)OC1=C(c2ccccc2C)C(=O)C2CCCCC12 (stereo not drawn) [drawing 22] | – | – | – | – | – | – | – | – | 2 | 2 | 1 | 1 | 3 | 2 | 5 | 7 (≈ 19 µM)
CCCCCCCCCCCCCCCC(=O)OC1=C(c2ccccc2C)C(=O)c2ccccc21 [reference compound] | – | – | – | – | – | – | – | – | 1 | 0 | 1 | 1 | 1 | 1 | 1 | 500 (≈ 1050 µM)
CCCCC(CC)C(=O)OC1=C(c2cc(C)ccc2C)C(=O)C2CCCCC12 (stereo not drawn) [Compound 30, 3-(2-ethylhexanoyloxy)-2-(2',5'-dimethylphenyl)-4,5,6,7,8,9-hexahydro-2-indenone] | 1 | 1 | 1 | 1 | 1 | 1 | 2 | A | – | – | – | – | – | – | – | –
CC(=O)OC1=C(c2ccc(C)cc2C)C(=O)C2CCCCC12 (stereo not drawn) [Compound 25] | 3 | 2 | 2 | 3 | 5 | 5 | 3 | A | – | – | – | – | – | – | – | –
CCCCC(CC)C(=O)OC1=C(c2ccccc2Cl)C(=O)CC1 (stereo not drawn) [Compound 1] | 3 | 3 | 2 | 5 | 5 | 5 | 4 | A | – | – | – | – | – | – | – | –
CCCCCCCCCCCCCCCC(=O)OC1=C(c2cc(C)ccc2C)C(=O)CC1 [Compound 14] | 3 | 3 | 3 | 1 | 4 | 1 | 1 | A | – | – | – | – | – | – | – | –
CCCCC(CC)C(=O)OC1=C(c2ccc(Cl)cc2Cl)C(=O)CC1 (stereo not drawn) [Compound 5] | 2 | 2 | 2 | 1 | 1 | – | 3 | A | – | – | – | – | – | – | – | –
CCCCC(CC)C(=O)OC1=C(c2ccc(C)cc2C)C(=O)CC1 (stereo not drawn) [Compound 9, 3-(2-ethylhexanoyloxy)-2-(2', 4'-dimethylphenyl)-2-cyclopentenone] | 1 | 1 | 1 | 2 | 5 | 4 | 3 | A | – | – | – | – | – | – | – | –
CC(=O)OC1=C(c2cc(C)ccc2C)C(=O)C(C)C1 (stereo not drawn) [Compound 15] | 2 | 2 | 2 | 2 | 4 | 2 | 3 | A | – | – | – | – | – | – | – | –
CCCCC(CC)C(=O)OC1=C(c2ccccc2C)C(=O)CC1 (stereo not drawn) [drawing 21] | – | – | – | – | – | – | – | – | 2 | 2 | 2 | 1 | 5 | 3 | 2 | 220 (≈ 700 µM)
CCCCCCCCCCCCCCCC(=O)OC1=C(c2ccc(Cl)cc2Cl)C(=O)CC1 [Compound 6] | 1 | 1 | 1 | 1 | 1 | – | 1 | A | – | – | – | – | – | – | – | –
CC(=O)OC1=C(c2ccc(Cl)cc2Cl)C(=O)CC1 [Compound 3] | 2 | 2 | 2 | 1 | 2 | – | 3 | A | – | – | – | – | – | – | – | –
CC(C)C(=O)OC1=C(c2ccc(Cl)cc2Cl)C(=O)CC1 [Compound 4] | 2 | 2 | 2 | 1 | 1 | – | 4 | B | – | – | – | – | – | – | – | –
